For orientation: IC50 means the concentration that gives 50% inhibition.

Where a SMILES comes first, the peptide text is derived from it. [ ]: non-standard residue; d: D form. The star is where a group is joined. Acetyl(2-(piperazin-1-yl)) = O=C(CN1CCNCC1)*; 2Nal = N[C@@H](Cc1ccc2ccccc2c1)C(=O)O; Bta = N[C@@H](Cc1csc2ccccc12)C(=O)O; Benzyl(3,4-Cl2) = Clc1ccc(C*)cc1Cl; Benzyl(4-Cl) = Clc1ccc(C*)cc1; pGlu = O=C1CC[C@@H](C(=O)O)N1; Pip = O=C(O)[C@@H]1CCCCN1; CH2PO3H2 = O=P(O)(O)C*; Mpa = O=C(O)CCS

hPin1 (Protein interacting with NIMA (-kinase)), sequence (Q13526 whole entry): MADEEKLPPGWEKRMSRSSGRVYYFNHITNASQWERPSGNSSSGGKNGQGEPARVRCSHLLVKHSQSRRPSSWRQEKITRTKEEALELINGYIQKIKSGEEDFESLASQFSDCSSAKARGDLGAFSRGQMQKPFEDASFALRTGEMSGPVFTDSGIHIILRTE

The first assay addresses hPin1 (Protein interacting with NIMA (-kinase)) (Homo sapiens, UniProt Q13526). The experiment in a line: protease-coupled PPIase assay, hPin1. The assay is classed as biochemical.
Details: not given
In turn, `NC(=O)[C@H](Cc1ccc2ccccc2c1)NC(=O)[C@@H]1CCCCN1C(=O)[C@H](CSCP(=O)(O)O)NC(=O)[C@@H]1CCC(=O)N1` [Compound 39, {3-[2-(1-Carbamoyl-2-naphthalen-2-yl-ethylcarbamoyl)-piperidin-1-yl]-3-oxo-2-[(5-oxo-pyrrolidine-2-carbonyl)-amino]-propylsulfanyl-methyl}-phosphonic acid] ([pGlu]C(CH2PO3H2)[Pip][2Nal]-NH2) yielded an IC50 of less than 1000 nM.
Consider `CC(=O)N[C@@H](Cc1csc2ccccc12)C(=O)N[C@@H](CSCP(=O)(O)O)C(=O)N1CCCC[C@H]1C(=O)N[C@@H](Cc1ccc2ccccc2c1)C(N)=O` [Compound 2, {2-(2-Acetylamino-3-benzo[b]thiophen-3-yl-propionylamino)-3-[2-(1-carbamoyl-2-naphthalen-2-yl-ethylcarbamoyl)-piperidin-1-yl]-3-oxo-propylsulfanylmethyl}-phosphonic acid], for which the IC50 was less than 1000 nM.
Still for that read-out and setting: for `NC(=O)[C@H](Cc1ccc2ccccc2c1)NC(=O)[C@@H]1CCCCN1C(=O)[C@H](CSCP(=O)(O)O)NC(=O)CC1NC(=O)NC1=O` (stereo partly drawn) [Compound 10, {3-[2-(1-Carbamoyl-2-naphthalen-2-yl-ethylcarbamoyl)-piperidin-1-yl]-2-[2-(2.5-dioxo-imidazolidin-4-yl)-acetylamino]-3-oxo-propylsulfanylmethyl}-phosphonicacid] the value was less than 1000 nM; for `NC(=O)[C@H](Cc1ccc2ccccc2c1)NC(=O)[C@@H]1CCCCN1C(=O)[C@H](CSCP(=O)(O)O)NC(=O)C1CSC(=O)N1C(=O)C1CSC(=O)N1` (stereo partly drawn) [Compound 13, (3-[2-(1-Carbamoyl-2-naphthalen-2-yl-ethylcarbamoyl)-piperidin-1-yl]-3-oxo-2-{[2-oxo-3-(2-oxo-thiazolidine-4-carbonyl)-thiazolidine-4-carbonyl]-amino}-propylsulfanylmethyl)-phosphonicacid], less than 1000 nM.
On the same count and under the same terms, under `NC(=O)[C@H](Cc1ccc2ccccc2c1)NC(=O)[C@@H]1CCCCN1C(=O)[C@H](CSCP(=O)(O)O)NC(=O)[C@H](Cc1csc2ccccc12)NC(=O)CN1CCNCC1` [Compound 19, {2-[3-Benzo[b]thiophen-3-yl-2-(2-piperazin-1-yl-acetylamino)-propionylamino]-3-[2-(1-carbamoyl-2-naphthalen-2-yl-ethylcarbamoyl)-piperidin-1-yl]-3-oxo-propylsulfanylmethyl}-phosphonic acid] ({Acetyl(2-(piperazin-1-yl))}-[Bta]C(CH2PO3H2)[Pip][2Nal]-NH2) stands less than 1000 nM.

The assay is the same for the next values; noted with them: hPin1 6 nM; substrate Ac-Ala-Ala-Ser(PO3H2)-Pro-Arg-pNA, trypsin; 35 mM HEPES pH 7.8, 6° C.; read-out: Specificity of the inhibition with rotamases, Target T-1 (IC50 class).
As for `CNC(=O)CC(SCP(=O)(O)O)C(=O)N1CCCC[C@H]1C(=O)N[C@@H](Cc1ccc2ccccc2c1)C(N)=O` (mixture of isomers) [Compound 69, {2-[2-(1-Carbamoyl-2-naphthalen-2-yl-ethylcarbamoyl)-piperidin-1-yl]-1-methylcarbamoylmethyl-2-oxo-ethylsulfanylmethyl}-phosphonic acid], the IC50 fell in the range of 1000 to 10000 nM.
On to `NC(=O)[C@H](Cc1ccc2ccccc2c1)NC(=O)[C@@H]1CCCCN1CCSCP(=O)(O)O` [Compound 55, {2-[2-(1-Carbamoyl-2-naphthalen-2-yl-ethylcarbamoyl)-piperidin-1-yl]-ethylsulfanylmethyl}-phosphonic acid], for which the IC50 was less than 1000 nM.
Still for that read-out and setting: under `NC(=O)[C@H](Cc1ccc2ccccc2c1)NC(=O)[C@@H]1CCCCN1C(=O)[C@H](CSCP(=O)(O)O)NC(=O)Cc1ccc(N2CCNCC2)cc1` [Compound 62, {3-[2-(1-Carbamoyl-2-naphthalen-2-yl-ethylcarbamoyl)-piperidin-1-yl]-3-oxo-2-[2-(4-piperazin-1-yl-phenyl)-acetylamino]-propylsulfanylmethyl}-phosphonicacid] stands less than 1000 nM; under `O=C(NCCc1ccc2ccccc2c1)[C@@H]1CCCCN1C(=O)CSCP(=O)(O)O` [Compound 59, {2-[2-(2-Naphthalen-2-yl-ethylcarbamoyl)-piperidin-1-yl]-2-oxo-ethylsulfanylmethyl}-phosphonic acid], 1000 to 10000 nM.
Still for that read-out and setting: under `NC(=O)[C@H](Cc1ccc2ccccc2c1)NC(=O)[C@@H]1CCCCN1C(=O)[C@H](CSCP(=O)(O)O)NC(=O)OCC1c2ccccc2-c2ccccc21` [Compound 17] stands 1000 to 10000 nM; under `O=C(NCCCc1ccccc1)[C@@H]1CCCCN1C(=O)CSCP(=O)(O)O` [Compound 68, {2-Oxo-2-[2-(3-phenyl-propylcarbamoyl)-piperidin-1-yl]-ethylsulfanylmethyl}-phosphonicacid], 1000 to 10000 nM; under `NC(=O)[C@H](Cc1ccc2ccccc2c1)NC(=O)[C@@H]1CCCCN1C(=O)[C@H](CSCP(=O)(O)O)NC(=O)CCN1CCCCC1` [Compound 54, [3-[2-(1-Carbamoyl-2-naphthalen-2-yl-ethylcarbamoyl)-piperidin-1-yl]-3-oxo-2-(3-piperidin-1-yl-propionylamino)-propylsulfanylmethyl]-phosphonicacid], 1000 to 10000 nM.
The same measure, in the same setting: under `NC(=O)[C@H](Cc1ccc2ccccc2c1)NC(=O)[C@@H]1CCCCN1C(=O)[C@H](CSCP(=O)(O)O)NC(=O)CN1CCNCC1` [Compound 41, [3-[2-(1-Carbamoyl-2-naphthalen-2-yl-ethylcarbamoyl)-piperidin-1-yl]-3-oxo-2-(2-piperazin-1-yl-acetylamino)-propylsulfanyl-methyl]-phosphonic acid] stands 1000 to 10000 nM; under `NC(=O)[C@H](Cc1ccc2ccccc2c1)NC(=O)[C@@H]1CCCCN1C(=O)[C@H](CSCP(=O)(O)O)NS(=O)(=O)CCc1ccccc1` [Compound 49, [3-[2-(1-Carbamoyl-2-naphthalen-2-yl-ethylcarbamoyl)-piperidin-1-yl]-3-oxo-2-(2-phenyl-ethanesulfonylamino)-propylsulfanylmethyl]-phosphonicacid], less than 1000 nM; under `CC(=O)N[C@@H](Cc1csc2ccccc12)C(=O)N[C@@H](CSCP(=O)(O)O)CN1CCCC[C@H]1C(=O)N[C@@H](Cc1ccc2ccccc2c1)C(N)=O` [Compound 25, {2-(2-Acetylamino-3-benzo[b]thiophen-3-yl-propionylamino)-3-[2-(1-carbamoyl-2-naphthalen-2-yl-ethylcarbamoyl)-piperidin-1-yl]-propylsulfanylmethyl}-phosphonicacid], less than 1000 nM.
Turning to `COc1ccc(CCCC(=O)N[C@@H](CSCP(=O)(O)O)C(=O)N2CCCC[C@H]2C(=O)N[C@@H](Cc2ccc3ccccc3c2)C(N)=O)cc1` [Compound 38, {3-[2-(1-Carbamoyl-2-naphthalen-2-yl-ethylcarbamoyl)-piperidin-1-yl]-2-[4-(4-methoxy-phenyl)-butyrylamino]-3-oxo-propylsulfanylmethyl}-phosphonicacid], the IC50 was less than 1000 nM.
Same read-out and setting: for `NC(=O)[C@H](Cc1ccc2ccccc2c1)NC(=O)[C@@H]1CCCCN1C(=O)[C@H](CSCP(=O)(O)O)NC(=O)CCSCc1ccc(Cl)c(Cl)c1` [Compound 6, {3-[2-(1-Carbamoyl-2-naphthalen-2-yl-ethylcarbamoyl)-piperidin-1-yl]-2-[3-(3.4-dichloro-benzylsulfanyl)-propionylamino]-3-oxo-propylsulfanylmethyl}-phosphonic acid] ([Mpa](Benzyl(3,4-Cl2))C(CH2PO3H2)[Pip][2Nal]-NH2) the value was 1000 to 10000 nM; for `NC(=O)[C@H](Cc1ccc2ccccc2c1)NC(=O)[C@@H]1CCCCN1C(=O)[C@H](CSCP(=O)(O)O)NS(=O)(=O)CCCc1ccccc1` [Compound 50, [3-[2-(1-Carbamoyl-2-naphthalen-2-yl-ethylcarbamoyl)-piperidin-1-yl]-3-oxo-2-(3-phenyl-propane-1-sulfonylamino)-propylsulfanylmethyl]-phosphonicacid], less than 1000 nM.
`NC(=O)[C@H](Cc1ccc2ccccc2c1)NC(=O)[C@@H]1CCCCN1C(=O)[C@H](CSCP(=O)(O)O)NC(=O)CCSCc1ccc(Cl)cc1` [Compound 5, {3-[2-(1-Carbamoyl-2-naphthalen-2-yl-ethylcarbamoyl)-piperidin-1-yl]-2-[3-(4-chloro-benzylsulfanyl)-propionylamino]-3-oxo-propylsulfanylmethyl}-phosphonicacid] ([Mpa](Benzyl(4-Cl))C(CH2PO3H2)[Pip][2Nal]-NH2): the IC50 was less than 1000 nM.
For the compound `NC(=O)[C@H](Cc1ccc2ccccc2c1)NC(=O)[C@@H]1CCCCN1C(=O)[C@H](CSCP(=O)(O)O)NC(=O)c1ccccc1` [Compound 20, {2-Benzoylamino-3-[2-(1-carbamoyl-2-naphthalen-2-yl-ethylcarbamoyl)-piperidin-1-yl]-3-oxo-propylsulfanylmethyl}-phosphonic acid], the IC50 is less than 1000 nM.
In the case of `COc1ccccc1CC(=O)N[C@@H](CSCP(=O)(O)O)C(=O)N1CCCC[C@H]1C(=O)N[C@@H](Cc1ccc2ccccc2c1)C(N)=O` [Compound 58, {3-[2-(1-Carbamoyl-2-naphthalen-2-yl-ethylcarbamoyl)-piperidin-1-yl]-2-[2-(2-methoxy-phenyl)-acetylamino]-3-oxo-propylsulfanylmethyl}-phosphonicacid], the concentration for half-maximal inhibition (IC50) is less than 1000 nM.
The same measure, in the same setting: for `CC(SCP(=O)(O)O)C(=O)N1CCCC[C@H]1C(=O)N[C@@H](Cc1ccc2ccccc2c1)C(N)=O` (stereo in doubt) [Compound 65, {2-[2-(1-Carbamoyl-2-naphthalen-2-yl-ethylcarbamoyl)-piperidin-1-yl]-1-methyl-2-oxo-ethylsulfanylmethyl}-phosphonicacid] the value was 1000 to 10000 nM; for `CNC(=O)[C@H](Cc1ccc2ccccc2c1)NC(=O)[C@@H]1CCCCN1C(=O)CSCP(=O)(O)O` [Compound 64, {2-[2-(1-Methylcarbamoyl-2-naphthalen-2-yl-ethylcarbamoyl)-piperidin-1-yl]-2-oxo-ethylsulfanylmethyl}-phosphonicacid], less than 1000 nM; for `NC(=O)[C@H](Cc1ccc2ccccc2c1)NC(=O)[C@@H]1CCCCN1C(=O)[C@H](CSCP(=O)(O)O)NC(=O)CCCCc1ccccc1` [Compound 8, [3-[2-(1-Carbamoyl-2-naphthalen-2-yl-ethylcarbamoyl)-piperidin-1-yl]-3-oxo-2-(5-phenyl-pentanoylamino)-propylsulfanylmethyl]-phosphonicacid], less than 1000 nM.
